Measured values reported in ChEMBL document CHEMBL1201862, “PubChem BioAssay data set” (2004).
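1) Cells in 96-well plates. 2) Compound, 48 h, 5 concentrations. 3) Linear interpolation between surrounding doses. 4) Unreached endpoint = highest concentration. Abbreviation: GI50, concentration required for 50% inhibition of growth.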 Calls of active or inactive are those of the source. No stated cut-off is given here; in the data, active = GI50 up to about 1.1 µM and inactive = higher.

What was measured:
Assay in all cases: NCI tumour cell line growth inhibition, 48 h
[1] = test system: HCC 2998
[2] = test system: HOP-62
[3] = test system: COLO 205
[4] = test system: NCI-H522
[5] = test system: OVCAR-4
[6] = test system: SNB-19
[7] = test system: HCT-116
[8] = test system: OVCAR-8
[9] = test system: SF-268
[10] = test system: SK-MEL-2
[11] = test system: MCF7
[12] = test system: K562
[13] = test system: Malme-3M
[14] = test system: PC-3
[15] = test system: NCI-H226
[16] = test system: LOX IMVI
[17] = test system: BT-549
[18] = test system: MDA-N
[19] = test system: EKVX
[20] = test system: CCRF-CEM

Row | Compound | GI50 [1] | GI50 [2] | GI50 [3] | GI50 [4] | GI50 [5] | GI50 [6] | GI50 [7] | GI50 [8] | GI50 [9] | GI50 [10] | GI50 [11] | GI50 [12] | GI50 [13] | GI50 [14] | GI50 [15] | GI50 [16] | GI50 [17] | GI50 [18] | GI50 [19] | GI50 [20]
1 | CCOC(=O)[C@]12C(=C(c3ccccc3)O[C@H]3C=CCC[C@H]31)C(=O)C(=O)N2c1ccccc1 | > 100 µM (inactive) | > 100 µM (inactive) | > 100 µM (inactive) | 24 µM (inactive) | > 100 µM (inactive) | > 100 µM (inactive) | > 100 µM (inactive) | 65.2 µM (inactive) | > 100 µM (inactive) | > 100 µM (inactive) | > 100 µM (inactive) | 17.5 µM (inactive) | 65.5 µM (inactive) | 58.2 µM (inactive) | – | – | – | – | – | –
2 | CN(C)CCNc1ccccn1 | > 100 µM (inactive) | > 100 µM (inactive) | – | > 100 µM (inactive) | > 100 µM (inactive) | > 100 µM (inactive) | > 100 µM (inactive) | > 100 µM (inactive) | > 100 µM (inactive) | > 100 µM (inactive) | – | > 100 µM (inactive) | > 100 µM (inactive) | > 100 µM (inactive) | > 100 µM (inactive) | > 100 µM (inactive) | > 100 µM (inactive) | > 100 µM (inactive) | > 100 µM (inactive) | –
3 | Cc1c2c(n(C)c1C)C(=O)C1C(C2=O)C2(C)c3ccccc3C1(C)c1ccccc12 (configuration not stated) | – | > 100 µM (inactive) | > 100 µM (inactive) | – | – | > 100 µM (inactive) | > 100 µM (inactive) | > 100 µM (inactive) | > 100 µM (inactive) | > 100 µM (inactive) | > 100 µM (inactive) | > 100 µM (inactive) | > 100 µM (inactive) | > 100 µM (inactive) | > 100 µM (inactive) | > 100 µM (inactive) | > 100 µM (inactive) | – | > 100 µM (inactive) | > 100 µM (inactive)
4 | CCOC1(OCC)N=C(N)C2(C#N)C3(C(=O)N(C(C)C)N=C3C)C12C#N (configuration not stated) | > 100 µM (inactive) | > 100 µM (inactive) | > 100 µM (inactive) | 79.1 µM (inactive) | > 100 µM (inactive) | > 100 µM (inactive) | > 100 µM (inactive) | > 100 µM (inactive) | > 100 µM (inactive) | > 100 µM (inactive) | > 100 µM (inactive) | > 100 µM (inactive) | > 100 µM (inactive) | > 100 µM (inactive) | > 100 µM (inactive) | – | > 100 µM (inactive) | – | > 100 µM (inactive) | 38.5 µM (inactive)
5 | CCCCC(=O)OC[n+]1ccc2c(C)c3[nH]c4ccc(OC)cc4c3c(C)c2c1 | 0.512 µM (active) | 0.47 µM (active) | 0.267 µM (active) | 0.695 µM (active) | 0.796 µM (active) | 0.364 µM (active) | 0.0718 µM (active) | 0.171 µM (active) | 0.344 µM (active) | 2.32 µM (inactive) | 0.168 µM (active) | 0.0702 µM (active) | 1.16 µM (inactive) | 0.308 µM (active) | 0.562 µM (active) | 0.271 µM (active) | – | 0.321 µM (active) | 1.14 µM (inactive) | 0.0684 µM (active)
6 | CC(C)(C)C(O)CC(O)(C(F)(F)F)C(F)(F)F (configuration not stated) | > 100 µM (inactive) | > 100 µM (inactive) | > 100 µM (inactive) | > 100 µM (inactive) | > 100 µM (inactive) | > 100 µM (inactive) | > 100 µM (inactive) | > 100 µM (inactive) | > 100 µM (inactive) | > 100 µM (inactive) | > 100 µM (inactive) | > 100 µM (inactive) | > 100 µM (inactive) | > 100 µM (inactive) | > 100 µM (inactive) | > 100 µM (inactive) | – | > 100 µM (inactive) | > 100 µM (inactive) | > 100 µM (inactive)
7 | O=C1OCOC2(CCCC2)C1c1ccccc1 (configuration not stated) | > 100 µM (inactive) | > 100 µM (inactive) | > 100 µM (inactive) | > 100 µM (inactive) | > 100 µM (inactive) | > 100 µM (inactive) | > 100 µM (inactive) | > 100 µM (inactive) | > 100 µM (inactive) | > 100 µM (inactive) | – | > 100 µM (inactive) | > 100 µM (inactive) | > 100 µM (inactive) | > 100 µM (inactive) | > 100 µM (inactive) | – | > 100 µM (inactive) | > 100 µM (inactive) | > 100 µM (inactive)
8 | Cc1cc(Cl)ccc1C1OC(=O)c2c1ccc1ccccc21 (configuration not stated) | > 100 µM (inactive) | > 100 µM (inactive) | > 100 µM (inactive) | > 100 µM (inactive) | 23.6 µM (inactive) | > 100 µM (inactive) | > 100 µM (inactive) | > 100 µM (inactive) | > 100 µM (inactive) | > 100 µM (inactive) | – | > 100 µM (inactive) | > 100 µM (inactive) | – | > 100 µM (inactive) | > 100 µM (inactive) | – | – | > 100 µM (inactive) | > 100 µM (inactive)
